{
  "source": "patent US20060229358A1",
  "about": "“Pharmaceutical composition containing flavonoids” (Taipei Medical University, priority 2005, published 2006)",
  "test_system": "PDE4",
  "assay": "Inhibition of cyclic nucleotide PDE activity (Assay I), PDE4, incl. Lineweaver-Burk analysis",
  "assay_type": "biochemical, guinea pig",
  "details": "from the IC50s of Table 2",
  "method": "Under a protocol approved by the Animal Care and Use Committee of Taipei Medical University, five male guinea pigs (Hartley), weighing 500-600 g, were sacrificed. The lungs (15 g) or hearts (4 g) taken therefrom were chopped into small pieces and homogenized with a glass/teflon homogenizer (Glas-Col, Terre Haute, Ind., USA) in 10 volumes of cold medium (pH 6.5) containing 20 mM Bis-Tris, 2 mM benzamidine, 2 mM EDTA, 50 mM sodium chloride, 0.1 mM phenylmethanesulfonyl fluoride (PMSF), and 1 mM dithiothreitol. At 4° C., the homogenate was centrifuged at 170 g for 15 min, and the supernatant thereof was then re-centrifuged at 40,000 g for 30 min. […] The column was washed with two bed volumes of homogenate buffer to remove unbound material, where the resin beads therein will bind with proteins, such as PDE proteins. Proteins bound to the Q-sepharose beads were eluted with various concentrations (0.23, 0.34, 0.44, 0.69, and 1.00 M) of NaCl dissolved in homogenate buffer (for each concentration, 40-50 mL elution buffer were applied) at a flow rate of 30 ml/h. Fractions (3 ml each) were collected, and ethylene glycol (EG) was added thereto until a final concentration of 30% (v/v). And then the samples were frozen at −70° C.\nThe activities of PDE1-5 in the homogenate were measured with a two-step procedure according to the method of Thompson and Appleman, using cAMP with [^3H]-cAMP or cGMP with [^3 H]-cGMP as substrates. The PDE enzyme prepared (25 μl) with 10 μl inhibitor or the solvents therefor was incubated for 30 min at 37° C. in a total assay buffer, where the final volume of the assay is amounted to 100 μl. In accordance with the features of the PDE isozymes, the assay buffer contains 50 mM Tris/HCl (pH 7.4), 3 mM MgCl2, 1 mM dithiothreitol, and 0.05% BSA, and optionally contains 1 uM cAMP with 0.2 μCi [^3H]-cAMP as a substrate alone or in the presence of 0.1 unit calmodulin with 10 μM CaCl2, or 5 μM cGMP, and 1 μM cGMP with 0.2 μCi [^3H]-cGMP as another substrate alone or in the presence of 0.1 unit calmodulin with 10 μM CaCl2.\nThe PDE enzyme and the inhibitors (or their solvent) therefor were mixed and incubated on ice for 30 min previously, and then mixed with the assay buffer. The assay was initiated by transferring the mixture to a water bath at 37° C. Following the other 30 min incubation, the reaction was stopped by transferring the reaction vessel to a bath of boiling water for 3 min. After cooling on ice, 20 μl of the 1 mg/ml of Crotalus atrox venom was added to the reaction mixture, and the mixture was incubated at 37° C. for 10 min. The uncatalyzed substrates, such as cAMP, [^3H]-cAMP, cGMP, or [^3H]-cGMP were removed by the addition of 500 μl of a 1-in-1 Tris-HCl (40 mM) buffer suspension of Dowex resin (1×8-200) with incubation on ice for 30 min, since the bindings of the cyclic nucleotides and the resin. Each tube was then centrifuged for 2 min at 6000 rpm, and 100 μl of the supernatant was removed and counted by a β-counter for calculating the enzyme (PDEs) activity.\nThe dissociation constant of inhibitor binding (Ki) value was determined from the equation of apparent Km as a function of the inhibitor concentration (insert in A and B, respectively). The slope of the equation is equal to the value of […] (where KM is Michaelis constant). The amounts of the total proteins are calculated based on the analytical method reported by Bradford. In FIGS. 1A and 1B, all enzyme activities are shown as nmole of substrate per mg of proteins per minute (nmole/mg/min) hydrolyzed.\nThe IC50 values of flavonoids and various reference drugs were calculated using non-linear regression analysis by the software SigmaPlot 7.0 (Sigma Chemical, St. Louis Mo., USA).",
  "data": [
    {"smiles": "COc1cc(O)c2c(=O)c(-c3ccc(O)cc3)coc2c1", "note": "[Prunetin]", "values": [
      {"measurement": "selectivity among PDE1-5", "result": "more-selective inhibition on PDE4"}
    ]}
  ]
}
